According to patent US7192924B2, “Corticotropin releasing factor 2 receptor agonists” (priority 2002, dated 2007):
Peptide text beside a SMILES is read from it.

Key:
CRF2R = target: T1, CRF2R (Homo sapiens, UniProt Q13324); assay: CRF2R agonist activity (EC50, Emax), called comparative CRF binding; assay type: cell-based; conditions: read-out: CRF2R EC50
T1 sequence (Q13324 1-411): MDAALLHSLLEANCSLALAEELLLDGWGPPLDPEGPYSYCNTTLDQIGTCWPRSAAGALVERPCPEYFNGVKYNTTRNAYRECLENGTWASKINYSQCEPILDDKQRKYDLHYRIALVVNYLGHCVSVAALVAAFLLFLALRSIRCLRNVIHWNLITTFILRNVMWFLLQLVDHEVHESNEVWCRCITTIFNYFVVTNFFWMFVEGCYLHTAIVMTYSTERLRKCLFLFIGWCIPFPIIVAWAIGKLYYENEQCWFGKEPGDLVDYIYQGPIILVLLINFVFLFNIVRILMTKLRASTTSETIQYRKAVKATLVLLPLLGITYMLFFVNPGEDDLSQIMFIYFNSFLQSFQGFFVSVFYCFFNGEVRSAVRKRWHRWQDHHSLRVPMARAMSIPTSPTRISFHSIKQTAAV
Source text: (§1) The pharmacological activity and selectivity of the peptides of present invention can be determined using published test procedures. See, e.g, U.S. patent application Ser. No. 09/799,978. Because CRF2R and CRF1R are homologous proteins, it is expected that a certain proportion of agonists for CRF2R will also function as agonists of CRF1R. As discussed above, activation of CRF1R induces activation of the HPA axis since increased corticosteroid production leads to skeletal muscle atrophy. In most cases in which an increase in muscle mass or function is desired, it is not desirable to activate the HPA axis.
(§2) Because it is desirable to discriminate binding between CRF2R, as compared with CRF1R, the assays described above may be conducted using a cell, or membrane from a cell, which expresses only CRF2R or the assays can be conducted with a recombinant source of CRF2R. Cells expressing both forms of CRFR may be modified using homologous recombination to inactivate or otherwise disable the CRF1R gene. Alternatively, if the source of CRFR contains more than one CRFR type, the background signal produced by the receptor which is not of interest must be subtracted from the signal obtained in the assay. […] Known antagonists of CRFRs include, but, are not limited to, antalarmin (CRF1R selective), antisauvagine-30 (CRF2R selective) and astressin (nonselective for CRF1R/CRF2R).
(§3) Cell-based assays include the steps of contacting cells which express CRF1R or CRF2R with a peptide of the present invention or control and measuring activation of the CRFR by measuring the expression or activity of components of the CRFR signal transduction pathways.
(§4) As described in the background section above, CRFRs appear to couple through several different pathways including Gαs, Gαq or Gαi, depending upon the cell type. It is thought that agonist activation of CRFR allows the receptor to signal via any of these pathways, provided that the necessary pathway components are present in the particular cell type. Thus, to assay a particular peptide of the present invention for CRFR activation, an assay can use any of the signal transduction pathways as the readout even if the relevant cell type for treatment, in vivo, couples CRFR to skeletal muscle atrophy via a different pathway. […] Assays for measuring activation of these signaling pathways are known in the art.
(§5) For example, after contact with a peptide of the present invention, lysates of the cells can be prepared and assayed for induction of cAMP. cAMP is induced in response to Gαs activation. Because Gαs is activated by receptors other than CRFR and because a test peptide may be exerting its effect through CRFRs or by another mechanism, two control comparisons are relevant for determining whether the peptide increases levels of cAMP via activation of a CRFR. One control compares the cAMP level of cells contacted with the peptide and the cAMP level of cells contacted with a control compound (i.e., the vehicle in which the peptide is dissolved).
(§6) In one example, cAMP induction is measured with the use of DNA constructs containing the cAMP responsive element linked to any of a variety of reporter genes can be introduced into cells expressing CRFRs. Such reporter genes include, but are not limited to, chloramphenicol acetyltransferase (CAT), luciferase, glucuronide synthetase, growth hormone, fluorescent proteins (e.g., Green Fluorescent Protein), or alkaline phosphatase. Following exposure of the cells to the peptide, the level of reporter gene expression can be quantitated to determine the peptide's ability to increase cAMP levels and thus determine the peptide's ability to activate the CRFR.
(§7) In addition to using cells expressing full length CRFRs, cells can be engineered which express CRFRs containing the ligand binding domain of the receptor coupled to, or physically modified to contain, reporter elements or to interact with signaling proteins.

CRF1R = target: T2, CRF1R (Homo sapiens, UniProt P34998); assay: CRF1R agonist activity (EC50, Emax), called comparative CRF binding; assay type: cell-based; conditions: read-out: CRF1R EC50
T2 sequence (P34998 24-415): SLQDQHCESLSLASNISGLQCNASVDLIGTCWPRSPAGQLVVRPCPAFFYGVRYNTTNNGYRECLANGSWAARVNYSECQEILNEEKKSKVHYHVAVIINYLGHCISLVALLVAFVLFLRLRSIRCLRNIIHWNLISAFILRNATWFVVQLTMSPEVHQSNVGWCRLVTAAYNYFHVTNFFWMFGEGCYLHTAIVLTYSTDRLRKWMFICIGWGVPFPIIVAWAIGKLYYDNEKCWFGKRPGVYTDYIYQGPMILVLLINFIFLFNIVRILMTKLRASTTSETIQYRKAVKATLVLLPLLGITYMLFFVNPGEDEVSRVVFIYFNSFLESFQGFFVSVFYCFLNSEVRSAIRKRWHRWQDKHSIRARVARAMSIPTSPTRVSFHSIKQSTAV
Source text: as §1, §2, §3, §4, §5, §6, §7

SMILES | EC50 (CRF2R) [nM] | EC50 (CRF1R) [nM]
CC[C@H](C)[C@H](N)C(=O)N[C@H](C(=O)N[C@@H](CC(C)C)C(=O)N[C@@H](CO)C(=O)N[C@@H](CC(C)C)C(=O)N[C@@H](CC(=O)O)C(=O)N[C@H](C(=O)N1CCC[C@H]1C(=O)N[C@H](C(=O)NCC(=O)N[C@@H](CC(C)C)C(=O)N[C@@H](CC(C)C)C(=O)N[C@@H](CCC(N)=O)C(=O)N[C@@H](CCCCN)C(=O)N[C@H](C(=O)N[C@H](C(=O)N[C@@H](CCC(=O)O)C(=O)N[C@H](C(=O)N[C@@H](CCC(=O)O)C(=O)N[C@@H](CCCCN)C(=O)N[C@@H](CCC(N)=O)C(=O)N[C@@H](CCC(=O)O)C(=O)N[C@@H](CCCCN)C(=O)N[C@@H](CCC(=O)O)C(=O)N[C@@H](CCCCN)C(=O)N[C@@H](CCC(N)=O)C(=O)N[C@@H](CCC(N)=O)C(=O)N[C@@H](C)C(=O)N[C@H](C(=O)N[C@H](C(=O)N[C@@H](CC(N)=O)C(=O)N[C@@H](C)C(=O)N[C@@H](CCCNC(=N)N)C(=O)N[C@H](C(=O)N[C@@H](CC(C)C)C(=O)N[C@@H](C)C(=O)N[C@@H](CCCNC(=N)N)C(=O)N[C@H](C(N)=O)C(C)C)[C@@H](C)CC)[C@@H](C)O)[C@@H](C)O)[C@@H](C)CC)[C@@H](C)CC)C(C)C)[C@@H](C)CC)C(C)C)C(C)C [compound 300] (H-IVLSLDVPIGLLQKVIEIEKQEKEKQQATTNARILARV-NH2; N-terminus assumed) | 17.1 | ≥ 1000
CC[C@H](C)[C@H](NC(=O)[C@H](C)NC(=O)[C@H](CC(N)=O)NC(=O)[C@H](CCC(N)=O)NC(=O)[C@H](CCC(=O)O)NC(=O)[C@H](C)NC(=O)[C@H](CCCNC(=N)N)NC(=O)[C@H](CCC(=O)O)NC(=O)[C@H](CCCNC(=N)N)NC(=O)[C@H](CCC(N)=O)NC(=O)[C@H](CO)NC(=O)[C@H](CCC(N)=O)NC(=O)[C@@H](NC(=O)[C@H](CCCCN)NC(=O)[C@H](CCC(=O)O)NC(=O)[C@H](CC(C)C)NC(=O)[C@H](CCC(=O)O)NC(=O)[C@H](CC(C)C)NC(=O)[C@H](CC(C)C)NC(=O)[C@@H](NC(=O)[C@H](CCCNC(=N)N)NC(=O)[C@H](CC(C)C)NC(=O)[C@H](CC(C)C)NC(=O)[C@H](Cc1ccccc1)NC(=O)[C@H](CC(C)C)NC(=O)[C@@H]1CCCN1C(=O)[C@H](CC(C)C)NC(=O)[C@H](CC(=O)O)NC(=O)[C@@H](NC(=O)[C@H](CO)NC(=O)[C@H](CC(C)C)NC(=O)[C@H](CO)NC(=O)[C@@H]1CCCN1C(=O)[C@H](CC(N)=O)NC(=O)[C@@H](N)CC(=O)O)[C@@H](C)CC)[C@@H](C)O)[C@@H](C)O)C(=O)N[C@H](C(=O)N[C@@H](Cc1ccccc1)C(=O)N[C@@H](C)C(=O)N[C@@H](CO)C(=O)N[C@H](C(N)=O)C(C)C)[C@@H](C)CC [compound 343] (H-DNPSLSIDLPLFLLRTLLELEKTQSQRERAEQNAIIFASV-NH2; N-terminus assumed) | 13.6 | 783
CC[C@H](C)[C@H](N)C(=O)N[C@H](C(=O)N[C@@H](CC(C)C)C(=O)N[C@@H](CO)C(=O)N[C@@H](CC(C)C)C(=O)N[C@@H](CC(=O)O)C(=O)N[C@H](C(=O)N[C@H](C(=O)N[C@H](C(=O)NCC(=O)N[C@@H](CC(C)C)C(=O)N[C@@H](CC(C)C)C(=O)N[C@@H](CCC(N)=O)C(=O)N[C@H](C(=O)N[C@@H](CC(C)C)C(=O)N[C@@H](CC(C)C)C(=O)N[C@@H](CCC(=O)O)C(=O)N[C@@H](CCC(N)=O)C(=O)N[C@@H](C)C(=O)N[C@@H](CCCNC(=N)N)C(=O)N[C@@H](C)C(=O)N[C@@H](CCCNC(=N)N)C(=O)N[C@@H](C)C(=O)N[C@@H](C)C(=O)N[C@@H](CCCNC(=N)N)C(=O)N[C@@H](CCC(=O)O)C(=O)N[C@@H](CCC(N)=O)C(=O)N[C@@H](C)C(=O)N[C@H](C(=O)N[C@H](C(=O)N[C@@H](CC(N)=O)C(=O)N[C@@H](C)C(=O)N[C@@H](CCCNC(=N)N)C(=O)N[C@H](C(=O)N[C@@H](CC(C)C)C(=O)N[C@@H](C)C(=O)N[C@@H](CCCNC(=N)N)C(=O)N[C@H](C(N)=O)C(C)C)[C@@H](C)CC)[C@@H](C)O)[C@@H](C)O)[C@@H](C)CC)[C@@H](C)CC)C(C)C)C(C)C)C(C)C [compound 214] (H-IVLSLDVVIGLLQILLEQARARAAREQATTNARILARV-NH2; N-terminus assumed) | 74.3 | ≥ 100
CC[C@H](C)[C@H](N)C(=O)N[C@H](C(=O)N[C@@H](CC(C)C)C(=O)N[C@@H](CO)C(=O)N[C@@H](CC(C)C)C(=O)N[C@@H](CC(=O)O)C(=O)N[C@H](C(=O)N1CCC[C@H]1C(=O)N[C@H](C(=O)NCC(=O)N[C@@H](CC(C)C)C(=O)N[C@@H](CC(C)C)C(=O)N[C@@H](CCC(N)=O)C(=O)N[C@H](C(=O)N[C@@H](CC(C)C)C(=O)N[C@@H](CC(C)C)C(=O)N[C@@H](CCC(=O)O)C(=O)N[C@@H](CCC(N)=O)C(=O)N[C@H](C(=O)N[C@@H](CCCCN)C(=O)N[C@@H](C)C(=O)N[C@@H](CC(=O)O)C(=O)N[C@@H](C)C(=O)N[C@@H](C)C(=O)N[C@@H](CCCNC(=N)N)C(=O)N[C@@H](CCC(=O)O)C(=O)N[C@@H](CCC(N)=O)C(=O)N[C@@H](C)C(=O)N[C@H](C(=O)N[C@H](C(=O)N[C@@H](CC(N)=O)C(=O)N[C@@H](C)C(=O)N[C@@H](CCCNC(=N)N)C(=O)N[C@H](C(=O)N[C@@H](CC(C)C)C(=O)N[C@@H](C)C(=O)N[C@@H](CCCNC(=N)N)C(=O)N[C@H](C(N)=O)C(C)C)[C@@H](C)CC)[C@@H](C)O)[C@@H](C)O)[C@@H](C)O)[C@@H](C)CC)[C@@H](C)CC)C(C)C)C(C)C [compound 108] (H-IVLSLDVPIGLLQILLEQTKADAAREQATTNARILARV-NH2; N-terminus assumed) | 79 | > 100
CC[C@H](C)[C@H](N)C(=O)N[C@H](C(=O)N[C@@H](CC(C)C)C(=O)N[C@@H](CO)C(=O)N[C@@H](CC(C)C)C(=O)N[C@@H](CC(=O)O)C(=O)N[C@H](C(=O)N1CCC[C@H]1C(=O)N[C@H](C(=O)NCC(=O)N[C@@H](CC(C)C)C(=O)N[C@@H](CC(C)C)C(=O)N[C@@H](CCC(N)=O)C(=O)N[C@H](C(=O)N[C@@H](CC(C)C)C(=O)N[C@@H](CC(C)C)C(=O)N[C@@H](CCC(=O)O)C(=O)N[C@@H](CCC(N)=O)C(=O)N[C@H](C(=O)N[C@@H](CCCCN)C(=O)N[C@@H](C)C(=O)N[C@@H](CC(=O)O)C(=O)N[C@@H](CCC(N)=O)C(=O)N[C@@H](CC(C)C)C(=O)N[C@@H](C)C(=O)N[C@@H](CCC(N)=O)C(=O)N[C@@H](CCC(N)=O)C(=O)N[C@@H](C)C(=O)N[C@@H](Cc1c[nH]cn1)C(=O)N[C@@H](CO)C(=O)N[C@@H](CC(N)=O)C(=O)N[C@@H](CCCNC(=N)N)C(=O)N[C@@H](CCCCN)C(=O)N[C@@H](CC(C)C)C(=O)N[C@@H](CC(C)C)C(=O)N[C@@H](CC(=O)O)C(=O)N[C@H](C(=O)N[C@@H](C)C(N)=O)[C@@H](C)CC)[C@@H](C)O)[C@@H](C)CC)[C@@H](C)CC)C(C)C)C(C)C [compound 159] (H-IVLSLDVPIGLLQILLEQTKADQLAQQAHSNRKLLDIA-NH2; N-terminus assumed) | 90.8 | > 100
